Data published in PMC5814162, “Anticoagulants inhibit proteolytic clearance of plasma amyloid beta” (Oncotarget, 2017).

Assays:
[1] = test system: plasma Aβ42 (FXII-FVII pathway); experiment: Plasma Aβ42 level in mice given synthetic Aβ42 after anticoagulant treatment (ELISA); type: in vivo; details: male C57BL/6 mice, anticoagulant once daily for 5 days (EP 0.1 and 0.5 mg/kg i.p.; DGT 22.5 and 45 mg/kg p.o.), Aβ42 40 μg/kg i.p. 1 h after final dose, blood 6 h later, vs vehicle, mean of n = 3, 'up to' over the two doses
Description: All experiments were approved by the Institutional Animal Care and Use Committee at the Roswell Park Cancer Institute under protocol 1022M. All mice were housed in individually ventilated pathogen-free cage systems equipped with HEPA filtered air supply and reverse osmosis purified water in a centralized vivarium facility. The facility is controlled with fully automated sensors for light (12-hour dark - 12-hour light cycle), temperature (70°F ± 2°F), humidity and airflow. All mice had free access to standard rodent diet (sterilizable Teklad #2018, with 6% fat and alfalfa free). C57BL/6NTac mice (male) were purchased from Taconic and used in two experiments. In the first experiment, mice at 8-9 weeks of age were treated with vehicle or an anticoagulant once daily for 5 days, and 1 h after the final treatment, the mice were treated with a single dose of Aβ42, followed by blood draw 6 h later. Blood was collected from the mice by cardiac puncture at the time of sacrifice by carbon dioxide and was collected into K3 EDTA-containing tubes (Multivette 600 from Sarstedt), from which plasma samples were prepared. […] Plasma concentrations of Aβ were determined by ELISA, which either detects both Aβ40 and Aβ42 [53] or specifically measures each peptide. […] Plasma concentration of FI was also measured by ELISA using a kit from GenWay Biotech. […]

[2] = test system: plasma Aβ40 / endogenous Aβ (FXII-FVII pathway); experiment: Plasma Aβ level in mice treated with EP and/or Aβ40 (ELISA); type: in vivo; details: male C57BL/6 mice, EP 0.5 mg/kg i.p. once daily 5 days, n = 3
Description: All experiments were approved by the Institutional Animal Care and Use Committee at the Roswell Park Cancer Institute under protocol 1022M. All mice were housed in individually ventilated pathogen-free cage systems equipped with HEPA filtered air supply and reverse osmosis purified water in a centralized vivarium facility. The facility is controlled with fully automated sensors for light (12-hour dark – 12-hour light cycle), temperature (70°F ± 2°F), humidity and airflow. All mice had free access to standard rodent diet (sterilizable Teklad #2018, with 6% fat and alfalfa free). C57BL/6NTac mice (male) were purchased from Taconic and used in two experiments. In the first experiment, mice at 8–9 weeks of age were treated with vehicle or an anticoagulant once daily for 5 days, and 1 h after the final treatment, the mice were treated with a single dose of Aβ42, followed by blood draw 6 h later. Blood was collected from the mice by cardiac puncture at the time of sacrifice by carbon dioxide and was collected into K3 EDTA-containing tubes (Multivette 600 from Sarstedt), from which plasma samples were prepared. […]
(§1) Plasma concentrations of Aβ were determined by ELISA, which either detects both Aβ40 and Aβ42 [53] or specifically measures each peptide. […] Plasma concentration of FI was also measured by ELISA using a kit from GenWay Biotech. […]

FXII-FVII pathway [3] = experiment: Plasma coagulation factor activation in mice treated with EP and/or Aβ40 (Western blotting, FI by ELISA); type: in vivo; details: male C57BL/6 mice; EP 0.5 mg/kg i.p. once daily 5 days, then Aβ40 40 μg/kg i.p.; blood 6 h later
Description: All experiments were approved by the Institutional Animal Care and Use Committee at the Roswell Park Cancer Institute under protocol 1022M. All mice were housed in individually ventilated pathogen-free cage systems equipped with HEPA filtered air supply and reverse osmosis purified water in a centralized vivarium facility. The facility is controlled with fully automated sensors for light (12-hour dark – 12-hour light cycle), temperature (70°F ± 2°F), humidity and airflow. All mice had free access to standard rodent diet (sterilizable Teklad #2018, with 6% fat and alfalfa free). C57BL/6NTac mice (male) were purchased from Taconic and used in two experiments. […]
as §1
(§2) Each plasma sample (7.5 μl of plasma per sample) was mixed with 4x loading dye, heated at 95°C for 5 min, and resolved by SDS-PAGE. The separated proteins were transferred to polyvinylidene fluoride membrane, probed with specific antibodies, and detected using Luminata Classico or Luminata Cresendo (Millipore).

FXII-FVII pathway [4] = experiment: FXII-FVII pathway activation in J20 mice and WT littermates, effect of EP (Western blotting, FI by ELISA); type: in vivo; details: EP 0.5 mg/kg i.p. once daily 5 days; for effect of EP on coagulation factor activation in J20 mice: blood 6 h after final treatment; for effect of EP on plasma FI level in WT littermates: ELISA
Description: (§3) J20 mice were purchased from the Mutant Mouse Resource & Research Centers (MMRRC) via the Jackson Laboratory. Hemizygous male J20 mice in C57BL/6J background were bred with WT female mice (C57BL/6J, also from Jackson Laboratory). F1 hemizygous J20 mice were identified by PCR genotyping based on the Jackson Laboratory protocol (https://www/jax.org/strain/006293) and used for experiments. J20 mice and their WT littermates (at the age of 1, 3 and 6 months, male and female) were treated with EP or vehicle i.p. once daily for 5 days, and at 6 h after the last treatment, blood was drawn from the mice.
(§4) Plasma concentrations of Aβ were determined by ELISA, which either detects both Aβ40 and Aβ42 [53] or specifically measures each peptide. In the latter case, ELISA kits from Invitrogen (KHB3481 and KHB3441) were used. Plasma concentration of FI was also measured by ELISA using a kit from GenWay Biotech. The commercial kits were used by following the manufacturers’ instructions.
as §2

plasma Aβ = experiment: Plasma Aβ level in J20 mice and WT littermates, ELISA measuring both Aβ40 and Aβ42; type: in vivo; details: EP 0.5 mg/kg i.p. once daily 5 days
Description: as §3, §4

plasma Aβ40 = experiment: Plasma Aβ40 level in J20 mice and WT littermates, ELISA specific for Aβ40; type: in vivo; details: 3 months of age, EP 0.5 mg/kg i.p. once daily 5 days
Description: as §3, §4

plasma Aβ42 = experiment: Plasma Aβ42 level in J20 mice and WT littermates, ELISA specific for Aβ42; type: in vivo; details: 3 months of age, EP 0.5 mg/kg i.p. once daily 5 days
Description: as §3, §4

[5] = test system: brain amyloid plaque load; details: Tg2576 mice; chronic treatment with EP at the same dose regimen (∼2.5 mg/kg, i.p., 3 times weekly); cited from earlier work
Source text: (§5) By inhibiting the FXII-FVII pathway, anticoagulants present an interesting dichotomy in impacting AD: Inhibiting procoagulant activity, potentially slowing or ameliorating AD, but also inhibiting plasma Aβ degradation, potentially contributing to brain Aβ accumulation. Indeed, increased coagulation is implicated in AD [42], but there is also evidence that peripheral Aβ moves to the brain [43]. The exact effect of anticoagulants on AD remains unclear. Treatment of AD mice (APP23 mice) with EP (∼2.5 mg/kg, i.p., 3 times weekly) for 6 months reduced brain astrocyte activation and Aβ accumulat ...

[6] = test system: brain astrocyte activation and Aβ accumulation; details: APP23 mice; EP ∼2.5 mg/kg, i.p., 3 times weekly for 6 months; cited from earlier work
Source text: as §5

With `[H]/N=C(/N)c1ccc(NCc2nc3cc(C(=O)N(CCC(=O)O)c4ccccn4)ccc3n2C)cc1` [DGT, dabigatran] the “increase in plasma level of Aβ42” value [1] was “up to 21.3 fold”.

With enoxaparin [EP] the “increase in plasma level of Aβ42” value [1] was “up to 73.3 fold”, the “increase in plasma level of exogenously administered Aβ40” value ([2]; Aβ40 40 μg/kg i.p. 1 h after last dose, blood 6 h later) was 77.4 fold and the “elevation of plasma level of endogenous Aβ” value ([2]; no Aβ40 injected) was 1.7 fold. For the same molecule, the “effect of EP on Aβ40-induced activation of coagulation factors” value (FXII-FVII pathway [3]) was “prevents the activation of FX, FII, FVII and FI”, the “effect of EP on coagulation factor activation in J20 mice” value (FXII-FVII pathway [4]; 1 month of age, male and female) was “greatly attenuated the activation of FX, FII, FVII and FI” and the “effect of EP on coagulation factor activation in J20 mice” value (FXII-FVII pathway [4]; 3 and 6 months of age) was “strongly inhibited the activation of FX, FII, FVII and FI”. For the same molecule, the “effect of EP on plasma FI level in WT littermates” value (FXII-FVII pathway [4]; 1 month of age) was “only slightly elevated FI level”, the “effect of EP on plasma FI level in WT littermates” value (FXII-FVII pathway [4]; 3 and 6 months of age) was “slightly elevate FI level” and the “ratio of EP-induced increase in plasma Aβ level in J20 mice over that in the WT littermates” value (“ratio of EP-induced increase” below) (plasma Aβ; 1 month of age, female) was 8.7. For the same molecule, the “ratio of EP-induced increase” value (plasma Aβ; 1 month of age, male) was 9.3, the “ratio of EP-induced increase” value (plasma Aβ; 3 months of age, female) was 56.9 and the “ratio of EP-induced increase” value (plasma Aβ; 3 months of age, male) was 47.5. The “ratio of EP-induced increase” value (plasma Aβ; 6 months of age, female) was 51.2, the “ratio of EP-induced increase” value (plasma Aβ; 6 months of age, male) was 40.4 and the “increase in plasma Aβ concentration after EP treatment” value (plasma Aβ; J20 mice, 1 month of age, male or female, n = 3) was 2.3 fold. For the same molecule, the “increase in plasma Aβ level after EP treatment” value (plasma Aβ; J20 mice, 3 months of age, female, n = 3) was 4.2 fold, the “increase in plasma Aβ level after EP treatment” value (plasma Aβ; J20 mice, 3 months of age, male, n = 3) was 3.7 fold and the “increase in plasma Aβ level after EP treatment” value (plasma Aβ; J20 mice, 6 months of age, female, n = 3) was 3.6 fold. The “increase in plasma Aβ level after EP treatment” value (plasma Aβ; J20 mice, 6 months of age, male, n = 3) was 3.4 fold, the “elevation of plasma Aβ concentration” value (plasma Aβ; WT littermates, regardless of age or gender, blood 6 h after final treatment, n = 3) was “approximately 1.6 fold” and the “ratio of EP-induced increase” value (plasma Aβ40; Aβ40, female) was 40.1. For the same molecule, the “ratio of EP-induced increase” value (plasma Aβ40; Aβ40, male) was 45.7, the “increase in plasma level of Aβ40 after EP treatment” value (from here on “increase in plasma level of Aβ40”) (plasma Aβ40; J20 mice, female) was 4.3 fold and the “increase in plasma level of Aβ40” value (plasma Aβ40; J20 mice, male) was 3.6 fold. The “increase in plasma level of Aβ40” value (plasma Aβ40; WT littermates, female) was 1.9 fold, the “increase in plasma level of Aβ40” value (plasma Aβ40; WT littermates, male) was 1.6 fold and the “ratio of EP-induced increase” value (plasma Aβ42; Aβ42, female) was 63.6. For the same molecule, the “ratio of EP-induced increase” value (plasma Aβ42; Aβ42, male) was 47.3, the “increase in plasma level of Aβ42 after EP treatment” value (plasma Aβ42; J20 mice, female) was 4.7 fold and the “increase in plasma level of Aβ42 after EP treatment” value (plasma Aβ42; J20 mice, male) was 4.3 fold. The “increase in plasma level of Aβ42 after EP treatment” value (plasma Aβ42; WT littermates, female) was 1.6 fold, the “increase in plasma level of Aβ42 after EP treatment” value (plasma Aβ42; WT littermates, male) was 1.7 fold and the “effect on brain amyloid plaque load” value [5] was “significantly increased brain amyloid plaque load”. For the same molecule, the “effect on brain astrocyte activation and Aβ accumulation” value [6] was “reduced brain astrocyte activation and Aβ accumulation”.
